Several values for one entry are separate records, joined by “and”; a condition that tells them apart may be missing. Identical values can stand only once.
Key:
[1] = molecular target: T1, Amine oxidase [flavin-containing] A (Homo sapiens, UniProt P21397); type: functional
T1 sequence (P21397 whole entry): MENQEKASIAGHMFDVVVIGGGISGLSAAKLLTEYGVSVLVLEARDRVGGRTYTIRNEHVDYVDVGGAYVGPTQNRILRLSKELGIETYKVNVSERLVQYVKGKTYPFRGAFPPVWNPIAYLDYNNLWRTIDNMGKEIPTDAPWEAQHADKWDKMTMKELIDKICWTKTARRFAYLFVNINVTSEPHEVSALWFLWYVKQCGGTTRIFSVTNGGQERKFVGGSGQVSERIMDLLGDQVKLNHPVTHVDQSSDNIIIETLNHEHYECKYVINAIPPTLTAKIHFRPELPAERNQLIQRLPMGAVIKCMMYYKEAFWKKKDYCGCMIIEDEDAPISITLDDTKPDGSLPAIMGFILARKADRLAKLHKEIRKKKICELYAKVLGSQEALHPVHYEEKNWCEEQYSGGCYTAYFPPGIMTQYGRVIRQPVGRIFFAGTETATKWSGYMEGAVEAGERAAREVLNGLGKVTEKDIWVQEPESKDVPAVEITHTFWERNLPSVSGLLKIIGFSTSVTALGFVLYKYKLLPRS

[2] = molecular target: T2, Type-1 angiotensin II receptor (Homo sapiens, UniProt P30556)
T2 sequence (P30556 whole entry): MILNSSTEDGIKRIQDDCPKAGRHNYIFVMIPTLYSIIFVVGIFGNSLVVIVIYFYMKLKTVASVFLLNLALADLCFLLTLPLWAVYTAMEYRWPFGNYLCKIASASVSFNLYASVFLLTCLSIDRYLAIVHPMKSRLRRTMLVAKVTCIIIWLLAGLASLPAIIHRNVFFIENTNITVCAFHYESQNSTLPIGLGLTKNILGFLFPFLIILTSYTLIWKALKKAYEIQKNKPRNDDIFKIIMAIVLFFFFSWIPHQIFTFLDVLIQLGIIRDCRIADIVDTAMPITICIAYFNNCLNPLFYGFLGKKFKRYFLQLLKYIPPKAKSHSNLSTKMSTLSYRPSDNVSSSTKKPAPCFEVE

[3] = molecular target: 3',5'-cyclic-AMP phosphodiesterase 4D (Homo sapiens, UniProt Q08499); type: functional
[4] = molecular target: T3, Prostaglandin G/H synthase 1 (Rattus norvegicus, UniProt Q63921); type: functional
T3 sequence (Q63921 whole entry): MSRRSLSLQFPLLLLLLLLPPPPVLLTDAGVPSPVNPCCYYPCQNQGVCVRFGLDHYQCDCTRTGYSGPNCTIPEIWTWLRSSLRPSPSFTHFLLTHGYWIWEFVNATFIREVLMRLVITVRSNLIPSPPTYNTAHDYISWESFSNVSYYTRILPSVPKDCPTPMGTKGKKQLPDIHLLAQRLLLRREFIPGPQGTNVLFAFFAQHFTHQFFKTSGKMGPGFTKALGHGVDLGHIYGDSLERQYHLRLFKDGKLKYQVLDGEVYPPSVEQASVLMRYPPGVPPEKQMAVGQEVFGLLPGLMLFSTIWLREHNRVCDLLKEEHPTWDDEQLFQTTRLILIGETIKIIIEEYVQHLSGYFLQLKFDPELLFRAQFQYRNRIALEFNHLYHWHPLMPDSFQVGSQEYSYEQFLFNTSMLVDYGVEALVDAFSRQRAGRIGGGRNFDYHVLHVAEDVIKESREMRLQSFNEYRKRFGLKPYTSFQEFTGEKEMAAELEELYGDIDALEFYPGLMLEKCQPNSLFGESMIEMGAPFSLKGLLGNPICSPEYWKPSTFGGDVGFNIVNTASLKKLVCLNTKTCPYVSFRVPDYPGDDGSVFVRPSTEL

Melanocortin receptor 3 = Melanocortin receptor 3 (Homo sapiens, UniProt P41968)
[5] = molecular target: T4, 5-hydroxytryptamine receptor 1A (Homo sapiens, UniProt P08908); type: functional, cell-based
T4 sequence (P08908 whole entry): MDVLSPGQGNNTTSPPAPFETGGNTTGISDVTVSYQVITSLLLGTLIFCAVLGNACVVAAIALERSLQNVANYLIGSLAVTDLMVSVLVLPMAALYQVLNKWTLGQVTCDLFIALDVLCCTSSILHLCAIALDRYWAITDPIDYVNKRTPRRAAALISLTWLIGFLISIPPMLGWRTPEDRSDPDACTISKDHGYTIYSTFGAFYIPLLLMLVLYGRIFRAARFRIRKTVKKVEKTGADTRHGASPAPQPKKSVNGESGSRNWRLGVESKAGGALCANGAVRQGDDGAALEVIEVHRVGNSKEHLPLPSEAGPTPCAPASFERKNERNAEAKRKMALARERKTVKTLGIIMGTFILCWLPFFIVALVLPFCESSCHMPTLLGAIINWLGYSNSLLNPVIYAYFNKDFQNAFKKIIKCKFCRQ

Motilin receptor = Motilin receptor (Homo sapiens, UniProt O43193)
[6] = molecular target: T5, Muscarinic acetylcholine receptor M2 (Homo sapiens, UniProt P08172); type: functional, cell-based
T5 sequence (P08172 whole entry): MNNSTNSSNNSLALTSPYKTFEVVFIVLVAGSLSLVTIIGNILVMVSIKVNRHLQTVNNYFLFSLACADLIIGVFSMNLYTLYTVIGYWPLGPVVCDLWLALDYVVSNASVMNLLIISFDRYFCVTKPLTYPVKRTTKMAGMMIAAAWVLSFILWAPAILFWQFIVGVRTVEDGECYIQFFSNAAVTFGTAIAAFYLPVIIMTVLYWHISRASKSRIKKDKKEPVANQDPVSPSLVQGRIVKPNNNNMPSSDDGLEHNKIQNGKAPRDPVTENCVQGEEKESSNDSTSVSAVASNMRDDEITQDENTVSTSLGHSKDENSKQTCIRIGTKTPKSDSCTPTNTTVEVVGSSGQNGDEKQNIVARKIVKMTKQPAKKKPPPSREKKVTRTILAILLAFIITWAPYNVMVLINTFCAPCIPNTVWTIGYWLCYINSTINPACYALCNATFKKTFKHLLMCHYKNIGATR

[7] = molecular target: Neuronal acetylcholine receptor subunit alpha-4 (Homo sapiens, UniProt P43681)
Further: assay procedure not described here.

Chain of Motilin receptor (O43193 whole entry): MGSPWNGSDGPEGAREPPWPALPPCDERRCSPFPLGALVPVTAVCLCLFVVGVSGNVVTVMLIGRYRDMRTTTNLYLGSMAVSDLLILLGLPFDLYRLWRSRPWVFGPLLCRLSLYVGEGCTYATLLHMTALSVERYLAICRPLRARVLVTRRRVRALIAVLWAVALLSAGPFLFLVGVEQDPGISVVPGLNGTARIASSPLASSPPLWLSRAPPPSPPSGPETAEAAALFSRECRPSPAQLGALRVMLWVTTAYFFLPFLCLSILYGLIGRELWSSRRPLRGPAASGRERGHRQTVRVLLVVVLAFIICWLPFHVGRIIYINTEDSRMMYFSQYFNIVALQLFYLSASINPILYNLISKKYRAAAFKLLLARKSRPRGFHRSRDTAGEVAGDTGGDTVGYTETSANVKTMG
Chain of 3',5'-cyclic-AMP phosphodiesterase 4D (Q08499 whole entry): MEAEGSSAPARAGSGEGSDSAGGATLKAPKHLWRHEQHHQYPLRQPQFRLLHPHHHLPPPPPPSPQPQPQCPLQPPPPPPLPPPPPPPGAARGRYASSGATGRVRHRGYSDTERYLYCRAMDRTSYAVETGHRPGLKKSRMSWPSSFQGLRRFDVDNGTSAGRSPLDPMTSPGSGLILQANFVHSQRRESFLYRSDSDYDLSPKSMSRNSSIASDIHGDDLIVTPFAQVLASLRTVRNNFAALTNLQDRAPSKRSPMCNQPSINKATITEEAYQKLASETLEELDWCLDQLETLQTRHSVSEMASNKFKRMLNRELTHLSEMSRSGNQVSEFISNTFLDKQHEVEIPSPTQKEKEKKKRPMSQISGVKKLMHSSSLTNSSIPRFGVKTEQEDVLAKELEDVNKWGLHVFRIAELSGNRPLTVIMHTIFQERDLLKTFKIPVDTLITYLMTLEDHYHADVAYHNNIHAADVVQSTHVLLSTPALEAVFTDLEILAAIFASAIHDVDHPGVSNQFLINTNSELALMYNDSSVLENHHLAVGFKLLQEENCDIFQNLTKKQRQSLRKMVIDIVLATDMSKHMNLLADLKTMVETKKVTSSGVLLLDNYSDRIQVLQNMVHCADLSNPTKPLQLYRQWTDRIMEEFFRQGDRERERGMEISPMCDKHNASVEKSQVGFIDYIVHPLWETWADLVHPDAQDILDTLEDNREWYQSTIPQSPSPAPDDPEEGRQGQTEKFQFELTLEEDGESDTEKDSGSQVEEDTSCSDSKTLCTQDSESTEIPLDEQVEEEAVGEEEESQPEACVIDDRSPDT
Chain of Neuronal acetylcholine receptor subunit alpha-4 (P43681 whole entry): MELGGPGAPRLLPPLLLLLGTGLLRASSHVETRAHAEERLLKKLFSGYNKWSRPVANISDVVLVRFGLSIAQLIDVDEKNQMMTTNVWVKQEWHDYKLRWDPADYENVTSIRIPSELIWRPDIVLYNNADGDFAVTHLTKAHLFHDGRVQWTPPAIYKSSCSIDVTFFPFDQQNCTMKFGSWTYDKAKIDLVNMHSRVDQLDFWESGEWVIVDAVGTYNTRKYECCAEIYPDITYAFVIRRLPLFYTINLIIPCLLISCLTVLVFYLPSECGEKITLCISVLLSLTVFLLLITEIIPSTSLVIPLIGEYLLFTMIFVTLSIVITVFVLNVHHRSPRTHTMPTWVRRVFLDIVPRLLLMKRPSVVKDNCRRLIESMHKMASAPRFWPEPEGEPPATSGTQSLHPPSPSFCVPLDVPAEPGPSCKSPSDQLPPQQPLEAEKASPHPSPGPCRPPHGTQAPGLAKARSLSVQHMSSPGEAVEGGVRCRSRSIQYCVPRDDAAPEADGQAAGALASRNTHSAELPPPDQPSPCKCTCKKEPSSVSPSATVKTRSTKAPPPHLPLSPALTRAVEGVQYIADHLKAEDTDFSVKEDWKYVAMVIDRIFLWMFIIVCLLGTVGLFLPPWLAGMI
Chain of Melanocortin receptor 3 (P41968 whole entry): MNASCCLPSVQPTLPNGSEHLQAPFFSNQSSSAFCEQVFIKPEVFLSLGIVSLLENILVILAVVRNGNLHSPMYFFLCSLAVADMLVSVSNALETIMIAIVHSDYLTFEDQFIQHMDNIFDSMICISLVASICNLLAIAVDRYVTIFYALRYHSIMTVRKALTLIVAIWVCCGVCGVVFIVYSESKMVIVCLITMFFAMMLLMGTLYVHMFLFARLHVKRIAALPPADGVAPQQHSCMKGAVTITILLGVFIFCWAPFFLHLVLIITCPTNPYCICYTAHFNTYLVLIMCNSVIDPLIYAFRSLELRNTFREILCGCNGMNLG

SMILES	AC50 [1] [µM]	AC50 [2] [µM]	AC50 [3]	AC50 [4]	AC50 (Melanocortin receptor 3) [µM]	AC50 [5] [µM]	AC50 (Motilin receptor) [µM]	AC50 [6] [µM]	AC50 [7] [µM]
CN(C)CCCNc1c2ccccc2nc2cccc([N+](=O)[O-])c12 [NITRACRINE]	19	> 30	21 µM	> 30 µM	> 30	> 30	> 30	> 30	> 30
CC(C)(C)C(=O)OCC(=O)[C@H]1CC[C@H]2[C@@H]3CCC4=CC(=O)CC[C@]4(C)[C@H]3CC[C@]12C [DESOXYCORTICOSTERONE PIVALATE]	> 10	> 10	> 30 µM	> 10 µM	> 10	> 10	> 10	> 10	> 10
C=CCNc1nc(NCC=C)nc(N2CCN(C(c3ccc(F)cc3)c3ccc(F)cc3)CC2)n1 [ALMITRINE]	> 30	> 30	> 30 µM	> 30 µM	> 30	> 30	> 30	> 30	> 30
Clc1ccc2c(N3CCN(CCCN4CCN(c5ccnc6cc(Cl)ccc56)CC4)CC3)ccnc2c1 [PIPERAQUINE]	> 30	> 30	22 µM	> 30 µM	> 30	> 30	> 30	> 30	> 30
CN1CCC(=C2c3ccccc3CCc3cccnc32)CC1 [AZATADINE]	> 10	> 30	> 30 µM	> 30 µM	> 30	> 30	> 10	> 10	> 10
CC1OC2(CS1)CN1CCC2CC1 (stereo not drawn) [CEVIMELINE]	> 30	> 10	> 30 µM	> 10 µM	> 10	> 10	> 10	3.03	> 10
CCC(C)C1(CC)C(=O)NC(=O)NC1=O (stereo not drawn) [BUTABARBITAL]	> 30	> 30	> 30 µM	> 30 µM	> 30	> 30	> 30	> 30	> 30
CC(N)C(O)c1ccccc1 (stereo not drawn) [PHENYLPROPANOLAMINE]	> 10	> 30	> 30 µM	> 30 µM	> 30	> 10	> 10	> 10	> 10
CCC(=O)O[C@]1(C(=O)SCF)[C@H](C)C[C@H]2[C@@H]3C[C@H](F)C4=CC(=O)C=C[C@]4(C)[C@@]3(F)[C@@H](O)C[C@@]21C [FLUTICASONE PROPIONATE]	> 30	> 30	> 30 µM	> 30 µM	> 30	> 30	> 30	> 30	> 30
CC(C(=O)O)c1ccc(CC2CCCC2=O)cc1 (stereo not drawn) [LOXOPROFEN]	> 30	> 30	> 30 µM	> 30 µM	> 30	> 30	> 30	> 30	> 30
CC1(C)S[C@@H]2[C@H](NC(=O)[C@H](N)c3ccccc3)C(=O)N2[C@H]1C(=O)OCOC(=O)[C@@H]1N2C(=O)C[C@H]2S(=O)(=O)C1(C)C [SULTAMICILLIN]	> 30	> 30	> 30 µM	> 30 µM	> 30	> 30	> 30	> 30	> 30
C[C@H](Cc1ccc(O)c(O)c1)[C@@H](C)Cc1ccc(O)c(O)c1 [MASOPROCOL]	> 30	> 10	4.2 µM and 2.8 µM and 3.1 µM	18 µM and 14 µM and 12 µM	> 30	> 10	> 10	> 30	> 30

From ChEMBL document CHEMBL5291721, “A preclinical secondary pharmacology resource illuminates target-adverse drug reaction associations of marketed drugs” (Nat Commun, 2023)
